Laboratory results from US11274097B2, “2-(het)aryl-substituted condensed bicyclic heterocycle derivatives as pest control agents” (BAYER CROPSCIENCE AKTIENGESELLSCHAFT, priority 2014, dated 2022).
Where two headings read alike, the source gives them in different places.

Experiments:
Phaedon cochleariae = Phaedon cochleariae spray test (PHAECO); assay type: in vivo; conditions: larvae, after 7 days
Method: Phaedon cochleariae—Spray Test (PHAECO)
(§1) Solvent: 78.0 parts by weight of acetone • • 1.5 parts by weight of dimethylformamide
(§2) Emulsifier: alkylaryl polyglycol ether
(§3) To produce an appropriate active ingredient formulation, 1 part by weight of active ingredient is dissolved using the stated parts by weight of solvent and made up with water containing an emulsifier concentration of 1000 ppm until the desired concentration is attained. To produce further test concentrations, the preparation is diluted with emulsifier-containing water.
Discs of Chinese cabbage leaves (Brassica pekinensis) are sprayed with an active ingredient formulation of the desired concentration and, after drying, populated with larvae of the mustard beetle (Phaedon cochleariae).
After 7 days, the efficacy in % is determined. 100% means that all the beetle larvae have been killed; 0% means that no beetle larvae have been killed.

Myzus persicae = Myzus persicae spray test (MYZUPE), Chinese cabbage leaf discs; assay type: in vivo; conditions: after 6 days
Method: Myzus persicae—Spray Test (MYZUPE)
Solvent: 78 parts by weight of acetone • • 1.5 parts by weight of dimethylformamide
Emulsifier: alkylaryl poly glycol ether
as §3
Discs of Chinese cabbage leaves (Brassica pekinensis) infested by all stages of the green peach aphid (Myzus persicae) are sprayed with an active ingredient formulation of the desired concentration.
After 6 days, the efficacy in % is determined. 100% means that all the aphids have been killed; 0% means that none of the aphids have been killed.

[1] = log P by HPLC on a reversed-phase column (C 18), EEC Directive 79/831 Annex V.A8; assay type: physicochemical; conditions: for LOGP_NEUTRAL: pH 7.8, 0.001 molar aqueous ammonium hydrogencarbonate/acetonitrile; for chromatographic logP: reversed-phase HPLC column (C 18)
Method: The log P values are measured according to EEC Directive 79/831 Annex V.A8 by HPLC (high-performance liquid chromatography) on a reversed-phase column (C 18). Temperature: 55° C. The LC-MS determination in the acidic range is effected at pH 2.7 using 0.1% aqueous formic acid and acetonitrile (contains 0.1% formic acid) as eluents, linear gradient from 10% acetonitrile to 95% acetonitrile. Called log P (HCOOH) in the table. LC-MS determination in the neutral range is effected at pH 7.8 with 0.001 molar aqueous ammonium hydrogencarbonate solution and acetonitrile as eluents; linear gradient from 10% acetonitrile to 95% acetonitrile. Called log P (neutral) in the table. Calibration is effected with unbranched alkan-2-ones (having 3 to 16 carbon atoms) with known log P values (log P values determined on the basis of the retention times by linear interpolation between two successive alkanone s).

Tetranychus urticae = Tetranychus urticae spray test, OP-resistant (TETRUR); assay type: in vivo; conditions: application rate 500 g/ha; bean leaf discs; after 6 days
Method: Tetranychus urticae—Spray Test, OP-Resistant (TETRUR)
as §1, §2, §3
Discs of bean leaves (Phaseolus vulgaris) infested by all stages of the greenhouse red spider mite (Tetranychus urticae) are sprayed with an active ingredient formulation of the desired concentration.
After 6 days, the efficacy in % is determined. 100% means that all the spider mites have been killed; 0% means that none of the spider mites have been killed.

Spodoptera frugiperda = Spodoptera frugiperda spray test (SPODFR); assay type: in vivo; conditions: application rate 500 g/ha; maize leaf discs; after 7 days
Method: Spodoptera frugiperda—Spray Test (SPODFR)
as §1, §2, §3
Leaf discs of maize (Zea mays) are sprayed with an active ingredient formulation of the desired concentration and, after drying, populated with caterpillars of the armyworm (Spodoptera frugiperda).
After 7 days, the efficacy in % is determined. 100% means that all the caterpillars have been killed; 0% means that no caterpillars have been killed.

[2] = acidic range, pH 2.7, 0.1% aqueous formic acid/acetonitrile, 55° C.
[3] = acidic range, pH 2.7, 0.1% aqueous formic acid/acetonitrile, 55° C., read-out: LOGP_HCOOH
[4] = neutral range, pH 7.8, read-out: log P (neutral)

SMILES	LOGP_HCOOH [1, 2]	LOGP_NEUTRAL ([1]; neutral range, 55° C.)	chromatographic logP [1, 3]	chromatographic logP [1, 4]	efficacy (Phaedon cochleariae; application rate 500 g/ha) [%]	efficacy (Myzus persicae; application rate 500 g/ha) [%]	efficacy (Tetranychus urticae) [%]	efficacy (Spodoptera frugiperda) [%]	efficacy (Phaedon cochleariae; application rate 100 g/ha) [%]	efficacy (Myzus persicae; application rate 20 g/ha) [%]
CCSc1ccc(NC(C)=O)nc1-c1nc2cc(C(F)(F)F)ncc2n1C [Example I-50]	2.39	2.27			100	90				
CCS(=O)(=O)c1ccc(OC)nc1-c1nc2cc(C(F)(F)F)ncc2n1C [Example I-45]	2.53				100	90				
CCS(=O)(=O)c1cc(Cl)ccc1-c1nc2cc(C(F)(F)F)ncc2n1C [Example I-43]	2.69	2.61			100	100				
CCS(=O)(=O)c1cc(C(F)(F)F)cnc1-c1nc2cc(Cl)ncc2n1C [Example I-52]	2.61	2.51			100	100				
CCSc1ccccc1-c1nc2cc(C(F)(F)F)ncc2n1C [Example I-17]	2.94	2.87				90			83	
Cn1c(-c2ccc(Cl)cc2[S+](C)[O-])nc2cc(C(F)(F)F)ncc21 (stereo not drawn) [Example I-10]	2.15	2.08			100	100				
CCSc1ccc(OC)nc1-c1nc2cc(C(F)(F)F)ncc2n1C [Example I-53]	3.12				100		90			
CSc1cc(F)ccc1-c1nc2cc(C(F)(F)F)ncc2n1C [Example I-4]	2.70	2.65			100	90				
CCS(=O)(=O)c1ccc(Cl)cc1-c1nc2cc(C(F)(F)F)ncc2n1C [Example I-38]	2.68	2.63			100	90				
CCS(=O)(=O)c1ccc(NC(C)=O)nc1-c1nc2cc(C(F)(F)F)ncc2n1C [Example I-49]	2.05	1.99			100	90				
CCS(=O)(=O)c1cc(C(N)=O)cnc1-c1nc2cc(C(F)(F)F)ncc2n1C [Example I-56]	1.61	1.56				90				
CCSc1cccnc1-c1nc2cc(C(F)(F)F)ncc2n1C [Example I-24]	2.39	2.32			100	100				
CCSc1cccnc1-c1nc2cc(C(F)(F)C(F)(F)F)ncc2n1C [Example I-46]	2.98	2.92			100	90		100		

The next lines start with results.

LOGP_HCOOH [1, 2]	LOGP_NEUTRAL ([1]; neutral range, 55° C.)	chromatographic logP [1, 3]	chromatographic logP [1, 4]	SMILES	efficacy (Phaedon cochleariae; application rate 500 g/ha) [%]	efficacy (Myzus persicae; application rate 500 g/ha) [%]	efficacy (Tetranychus urticae) [%]	efficacy (Spodoptera frugiperda) [%]	efficacy (Phaedon cochleariae; application rate 100 g/ha) [%]	efficacy (Myzus persicae; application rate 20 g/ha) [%]
4.02	3.96			CCSCCSc1cc(C(F)(F)F)cnc1-c1nc2cc(C(F)(F)F)ncc2n1C [Example I-23]		100				
2.45	2.36			CC[S+]([O-])c1cc(Cl)ccc1-c1nc2cc(C(F)(F)F)ncc2n1C (stereo not drawn) [Example I-44]	100	100	90			
3.17	3.10			CC[S+]([O-])c1cc(C(F)(F)F)cnc1-c1nc2cc(C(F)(F)F)ncc2n1C (stereo not drawn) [Example I-37]	100			100		
3.16	3.07			Cn1c(-c2ncc(C(F)(F)F)cc2S(=O)(=O)CCF)nc2cc(C(F)(F)F)ncc21 [Example I-54]	100			100		
1.88	1.83			Cn1c(-c2ccc(F)cc2[S+](C)[O-])nc2cc(C(F)(F)F)ncc21 (stereo not drawn) [Example I-12]	100	90				
4.10	4.02			CCSc1cc(C(F)(F)F)cnc1-c1nc2cc(C(F)(F)C(F)(F)F)ncc2n1C [Example I-47]	100			100		
2.71	2.63			CC[S+]([O-])c1cccnc1-c1nc2cc(C(F)(F)C(F)(F)F)ncc2n1C (stereo not drawn) [Example I-61]	100	90		100		
	2.76	2.81	2.76	Cn1c(-c2ncc(C(F)(F)F)cc2[S+](C)[O-])nc2cc(C(F)(F)F)ncc21 (stereo not drawn) [Example I-26, 3-methyl-2-[3-(methylsulphinyl)-5-(trifluoromethyl)pyridin-2-yl]-6-(trifluoro-methyl)-3H-imidazo[4,5-c]pyridine]	100			100		
3.52	3.45			CCC[S+]([O-])c1cc(C(F)(F)F)cnc1-c1nc2cc(C(F)(F)F)ncc2n1C (stereo not drawn) [Example I-39]	100			100		90
2.67	2.64		2.64	Cn1c(-c2ncc(C(F)(F)F)cc2S(C)(=O)=O)nc2cc(C(F)(F)F)ncc21 [Example I-36, 3-Methyl-2-[3-(methylsulphonyl)-5-(trifluoromethyl)pyridin-2-yl]-6-(trifluoromethyl)-3H-imidazo[4,5-c]pyridine]	100					
2.48				CC[S+]([O-])c1c(C(F)(F)F)ccnc1-c1nc2cc(C(F)(F)F)ncc2n1C (stereo not drawn) [Example I-51]	100	90				
3.29	3.22			CCSc1cc(C(F)(F)F)cnc1-c1nc2nc(C(F)(F)F)ncc2n1C [Example I-28]	100		90			
	3.16	3.22	3.16	CSc1cc(C(F)(F)F)cnc1-c1nc2cc(C(F)(F)F)ncc2n1C [Example I-3, 3-methyl-2-[3-(methylsulphanyl)-5-(trifluoromethyl)pyridin-2-yl]-6-(trifluoro-methyl)-3H-imidazo[4,5-c]pyridine]	100					
3.75	3.62			CC[S+]([O-])c1cc(C(F)(F)F)cnc1-c1nc2cc(C(F)(F)C(F)(F)F)ncc2n1C (stereo not drawn) [Example I-63]	83			100		
